Laboratory results from patent publication US9498387B2, “Absorbent article having bent sections” (UNICHARM CORPORATION, priority 2012, dated 2016).

From the text: As used herein, the term “solubility” in regard to water solubility includes cases where the sample completely dissolves in deionized water to form a homogeneous mixture, and cases where the sample is completely emulsified. As used herein, “completely” means that no mass of the sample remains in the deionized water.

CCCCCCCCCCCCCC(=O)OCCCCCCCCCCCC [2-19]
Water solubility: <0.05 g

CCCCCCCCCCCCOC(=O)CCCCCCCCCCC [2-18]
Water solubility: <0.05 g
